Where a name gives a salt, the structure may show the parent alone.
First: CN(C(=O)c1ccc(-n2cccn2)cc1)C1CCN(C2CCC2)CC1 (as salt: hydrochloride) [Example 86, N-(1-cyclobutylpiperidin-4-yl)-N-methyl-4-(1H-pyrazol-1-yl)benzamide]
Second: CN(C(=O)c1ccc(Cn2cccn2)cc1)C1CCN(C2CCC2)CC1 (as salt: hydrochloride) [Example 92, N-(1-cyclobutylpiperidin-4-yl)-N-methyl-4-(1H-pyrazol-1-ylmethyl)benzamide]
The melting point of the first is higher: 272 to 273 °C for the first, 235 to 237 °C for the second.

Compared with `CC(C)N1CCC(N(C)C(=O)c2ccc(Cn3cccn3)cc2)CC1` (as salt: hydrochloride) [Example 91, N-methyl-N-[1-(1-methylethyl)piperidin-4-yl]-4-(1H-pyrazol-1-ylmethyl)benzamide], `Cc1nc2ccccc2n1-c1ccc(C(=O)N(C)C2CCN(C(C)C)CC2)cc1F` (as salt: hydrochloride) [Example 119, 3-fluoro-N-methyl-4-(2-methyl-1H-benzimidazol-1-yl)-N-[1-(1-methylethyl)piperidin-4-yl]benzamide] is higher in melting point: 213 to 215 °C for the first, 279 to 281 °C for the second.

First: Cc1nc2ccccc2n1-c1ccc(C(=O)N(C)[C@@H]2CCN(C(C)C)C2)cc1F (as salt: hydrochloride) [Example 103, 3-fluoro-N-methyl-4-(2-methyl-1H-benzimidazol-1-yl)-N-[(3R)-1-(1-methylethyl)pyrrolidin-3-yl]benzamide]
Second: Cc1cc(C(=O)N(C)[C@@H]2CCN(C(C)C)C2)ccc1-n1c(C)nc2ccccc21 (as salt: hydrochloride) [Example 107, N,3-dimethyl-4-(2-methyl-1H-benzimidazol-1-yl)-N-[(3R)-1-(1-methylethyl)pyrrolidin-3-yl]benzamide]
The melting point of the first is lower: 175 to 177 °C for the first, 183 to 185 °C for the second.

`Cc1nc2ccccc2n1-c1ccc(C(=O)N(C)[C@@H]2CCN(C3CCC3)C2)cc1F` (as salt: hydrochloride) [Example 104, N-[(3R)-1-cyclobutylpyrrolidin-3-yl]-3-fluoro-N-methyl-4-(2-methyl-1H-benzimidazol-1-yl)benzamide] and `Cc1cc(C(=O)N(C)[C@@H]2CCN(C3CCC3)C2)ccc1-n1c(C)nc2ccccc21` (as salt: hydrochloride) [Example 108, N-[(3R)-1-cyclobutylpyrrolidin-3-yl]-N,3-dimethyl-4-(2-methyl-1H-benzimidazol-1-yl)benzamide] fall in the same range of melting point: 164 to 166 °C for the first, 164 to 166 °C for the second.

Compared with `Cc1nc2ccccc2n1-c1ccc(C(=O)N(C)[C@@H]2CCN(C(C)C)C2)c(Cl)c1` (as salt: hydrochloride) [Example 105, 2-chloro-N-methyl-4-(2-methyl-1H-benzimidazol-1-yl)-N-[(3R)-1-(1-methylethyl)pyrrolidin-3-yl]benzamide], `COc1cc(-n2c(C)nc3ccccc32)ccc1C(=O)N(C)[C@@H]1CCN(C(C)C)C1` (as salt: hydrochloride) [Example 111, (R)—N-(1-isopropylpyrrolidin-3-yl)-2-methoxy-N-methyl-4-(2-methyl-1H-benzo[d]imidazol-1-yl)benzamide] is lower in melting point: 204 to 205 °C for the first, 193 to 195 °C for the second.

Compared with `Cc1nc2ccccc2n1-c1ccc(C(=O)N(C)[C@@H]2CCN(C3CCC3)C2)c(Cl)c1` (as salt: hydrochloride) [Example 106, 2-chloro-N-[(3R)-1-cyclobutylpyrrolidin-3-yl]-N-methyl-4-(2-methyl-1H-benzimidazol-1-yl)benzamide], `COc1cc(-n2c(C)nc3ccccc32)ccc1C(=O)N(C)[C@@H]1CCN(C2CCC2)C1` (as salt: hydrochloride) [Example 112, (R)—N-(1-cyclobutylpyrrolidin-3-yl)-2-methoxy-N-methyl-4-(2-methyl-1H-benzo[d]imidazol-1-yl)benzamide] is lower in melting point: 207 to 209 °C for the first, 202 to 204 °C for the second.

First: COc1cc(C(=O)N(C)[C@@H]2CCN(C(C)C)C2)ccc1-n1c(C)nc2ccccc21 (as salt: hydrochloride) [Example 109, 3-methoxy-N-methyl-4-(2-methyl-1H-benzimidazol-1-yl)-N-[(3R)-1-(1-methylethyl)pyrrolidin-3-yl]benzamide]
Second: COc1cc(C(=O)N(C)C2CCN(C(C)C)CC2)ccc1-n1c(C)nc2ccccc21 (as salt: hydrochloride) [Example 125, 3-methoxy-N-methyl-4-(2-methyl-1H-benzimidazol-1-yl)-N-[1-(1-methylethyl)piperidin-4-yl]benzamide]
The melting point of the first is lower: 168 to 170 °C for the first, 250 to 252 °C for the second.

First: COc1cc(C(=O)N(C)[C@@H]2CCN(C3CCC3)C2)ccc1-n1c(C)nc2ccccc21 (as salt: hydrochloride) [Example 110, N-[(3R)-1-cyclobutylpyrrolidin-3-yl]-3-methoxy-N-methyl-4-(2-methyl-1H-benzimidazol-1-yl)benzamide]
Second: COc1cc(C(=O)N(C)C2CCN(C3CCCC3)CC2)ccc1-n1c(C)nc2ccccc21 (as salt: hydrochloride) [Example 126, N-(1-cyclopentylpiperidin-4-yl)-3-methoxy-N-methyl-4-(2-methyl-1H-benzimidazol-1-yl)benzamide]
The melting point of the first is lower: 168 to 170 °C for the first, 244 to 246 °C for the second.

Compared with `COc1cc(-n2c(C)nc3ccccc32)ccc1C(=O)N(C)C1CCN(C(C)C)CC1` (as salt: hydrochloride) [Example 127, N-(1-isopropylpiperidin-4-yl)-2-methoxy-N-methyl-4-(2-methyl-1H-benzo[d]imidazol-1-yl)benzamide], `COc1cc(-n2c(C)nc3ccccc32)ccc1C(=O)N(C)C1CCN(C2CCCC2)CC1` (as salt: hydrochloride) [Example 128, N-(1-cyclopentylpiperidin-4-yl)-2-methoxy-N-methyl-4-(2-methyl-1H-benzo[d]imidazol-1-yl)benzamide] is lower in melting point: 215 to 217 °C for the first, 210 to 212 °C for the second.

First: Cc1nc2ccccc2n1-c1ccc(C(=O)N[C@@H]2CCN(C3CCCCC3)C2)cc1 (as salt: hydrochloride) [Example 137, N-[(3R)-1-cyclohexylpyrrolidin-3-yl]-4-(2-methyl-1H-benzimidazol-1-yl)benzamide]
Second: CCN(C(=O)c1ccc(-n2c(C)nc3ccccc32)cc1)[C@@H]1CCN(C2CCCCC2)C1 (as salt: hydrochloride) [Example 142, N-[(3R)-1-cyclohexylpyrrolidin-3-yl]-N-ethyl-4-(2-methyl-1H-benzimidazol-1-yl)benzamide]
The melting point of the first is higher: 194 to 196 °C for the first, 177 to 179 °C for the second.

Compared with `CCN(C(=O)c1ccc(-n2c(C)nc3ccccc32)cc1)[C@@H]1CCNC1` (as salt: hydrochloride) [Example 138, (R)—N-ethyl-4-(2-methyl-1H-benzo[d]imidazol-1-yl)-N-(pyrrolidin-3-yl)benzamide hydrochloride], `Cc1nc2ccccc2n1Cc1ccc(C(=O)N(C)[C@@H]2CCN(C3CCC3)C2)c2ccccc12` (as salt: hydrochloride) [Example 143b, (R)—N-(1-cyclobutylpyrrolidin-3-yl)-N-methyl-4-((2-methyl-1H-benzo[d]imidazol-1-yl)methyl)-1-naphthamide] is lower in melting point: 174 to 176 °C for the first, 157 to 159 °C for the second.

Compared with `Cc1nc2ccccc2n1Cc1ccc(C(=O)N(C)[C@@H]2CCN(C(C)C)C2)c2ccccc12` (as salt: hydrochloride) [Example 143a, (R)—N-(1-isopropylpyrrolidin-3-yl)-N-methyl-4-((2-methyl-1H-benzo[d]imidazol-1-yl)methyl)-1-naphthamide], `Cc1nc2ccccc2n1Cc1ccc(C(=O)N(C)C2CCN(C(C)C)CC2)c2ccccc12` (as salt: hydrochloride) [Example 144b, N-(1-isopropylpiperidin-4-yl)-N-methyl-4-((2-methyl-1H-benzo[d]imidazol-1-yl)methyl)-1-naphthamide] is lower in melting point: 192 to 194 °C for the first, 153 to 155 °C for the second.

Work on `Cc1nc2ccccc2n1Cc1ccc(C(=O)N(C)C2CCN(C3CCCC3)CC2)c2ccccc12` (as salt: hydrochloride) [Example 144a, N-(1-cyclopentylpiperidin-4-yl)-N-methyl-4-((2-methyl-1H-benzo[d]imidazol-1-yl)methyl)-1-naphthamide] yielded a melting point of 228 to 230 °C.

With `CN(C(=O)c1ccc(-n2cccn2)cc1)C1CCN(C2CCCC2)CC1` (as salt: hydrochloride) [Example 87, N-(1-cyclopentylpiperidin-4-yl)-N-methyl-4-(1H-pyrazol-1-yl)benzamide] the melting point was 240 °C (dec.).
With `CN(C(=O)c1ccc(Cn2cccn2)cc1)C1CCN(C2CCCC2)CC1` (as salt: hydrochloride) [Example 93, N-(1-cyclopentylpiperidin-4-yl)-N-methyl-4-(1H-pyrazol-1-ylmethyl)benzamide] the melting point was 250 °C (dec.).
With `Cc1nc2ccccc2n1-c1ccc(C(=O)N(C)C2CCN(C3CCCC3)CC2)cc1F` (as salt: hydrochloride) [Example 120, N-(1-cyclopentylpiperidin-4-yl)-3-fluoro-N-methyl-4-(2-methyl-1H-benzimidazol-1-yl)benzamide] the melting point was 250 °C (dec.).
With `Cc1nc2ccccc2n1-c1ccc(C(=O)N(C)C2CCN(C(C)C)CC2)c(Cl)c1` (as salt: hydrochloride) [Example 121, 2-chloro-N-methyl-4-(2-methyl-1H-benzimidazol-1-yl)-N-[1-(1-methylethyl)piperidin-4-yl]benzamide] the melting point was 250 °C (dec.).
With `Cc1nc2ccccc2n1-c1ccc(C(=O)N(C)C2CCN(C3CCCC3)CC2)c(Cl)c1` (as salt: hydrochloride) [Example 122, 2-chloro-N-(1-cyclopentylpiperidin-4-yl)-N-methyl-4-(2-methyl-1H-benzimidazol-1-yl)benzamide] the melting point was 240 °C (dec.).
In the case of `Cc1cc(C(=O)N(C)C2CCN(C(C)C)CC2)ccc1-n1c(C)nc2ccccc21` (as salt: hydrochloride) [Example 123, N,3-dimethyl-4-(2-methyl-1H-benzimidazol-1-yl)-N-[1-(1-methylethyl)piperidin-4-yl]benzamide], the melting point is reported as 250 °C (dec.).
For `Cc1cc(C(=O)N(C)C2CCN(C3CCCC3)CC2)ccc1-n1c(C)nc2ccccc21` (as salt: hydrochloride) [Example 124, N-(1-cyclopentylpiperidin-4-yl)-N,3-dimethyl-4-(2-methyl-1H-benzimidazol-1-yl)benzamide], the melting point was 240 °C (dec.).

Source: patent US20080293771A1, “AZACYCLYLBENZAMIDE DERIVATIVES AS HISTAMINE-3 ANTAGONISTS” (Wyeth, priority 2007, published 2008)
